Tested on: spleen cells
Experiment: Cytokine (IFN-γ, IL-4) production in mouse spleen cell culture, sandwich ELISA assay
Assay type: cell-based
Conditions: mouse spleen cells 2×10^5 cells/well, reagent at 2, 20 and 200 ng/mL, supernatant 4 days later, values only in FIG. 1-6
Experimental: The spleen cells removed from the spleen of mouse were individually prepared to 2×10^5 cells/well (96-well plate) using RPMI1640 culture medium (manufactured by Sigma Corporation) containing 10% fetal calf serum (FCS). A reagent was added to the culture medium at each of the concentrations of 2 ng/mL, 20 ng/mL and 200 ng/mL. The cytokine amount in the culture supernatant 4 days later was measured by sandwich ELISA assay. As the test substances, compounds 33 and 34 obtained in Examples 14 and 15 were used, and α-galactosylceramide represented by the following formula (a) (α-GC, abbreviated as compound a in the Figure) was used as a control substance. In addition, DMSO was used as a control.
The cytokine amount was measured by sandwich ELISA assay in the same manner as in Experimental Example 1 except that compound 23 obtained in Example 6 was used as a test substance. In addition, the time course changes in the amount of IFN-γ production are shown in FIG. 5, and the time course changes in the amount of IL-4 production are shown in FIG. 6.

`CCCCCCCCCCCCCCCCCCCCCCCCCC(=O)N1[C@@H](CCCCCCCCCCCCCC)[C@@H](O)[C@@H]1COC1OC(CO)C(O)C(O)C1O` (stereo partly shown) [compound 23] was tested, and the “cytokine production pattern (IFN-γ and IL-4 production amount in culture supernatant)” value (“cytokine production pattern” for short) was “ability to preferentially induce IL-4 production”.

In the case of `CCCCCCCCCCCCCCCCCCCCCCCCCC(=O)N1[C@@H](CCCCCCCCCCCCC)C[C@@H](O)[C@@H]1COC1OC(CO)C(O)C(O)C1O` (stereo partly shown) [compound 33], the “cytokine production pattern” value was “IL-4 preferential cytokine production pattern”.

In the case of `CCCCCCCCCCCCCCCCCCCCCCCCCC(=O)N1[C@@H](CCCCCCCCCCCCC)C[C@@H](O)[C@@H]1COC1OC(CO)C(O)C(O)C1O` (stereo partly shown) [compound 34], the “cytokine production pattern” value was “IL-4 preferential cytokine production pattern”.

In the case of `CCCCCCCCCCCCCCCCCCCCCCCCCC(=O)N[C@@H](COC1OC(CO)C(O)C(O)C1O)[C@H](O)[C@H](O)CCCCCCCCCCCCCC` (stereo partly drawn) [α-galactosylceramide, reference compound], the “cytokine production pattern” value was “produced both IFN-γ and IL-4 in large amounts”.
